According to ChEMBL document CHEMBL5634133, “Indirubin derivatives as bifunctional molecules inducing DNA damage and targeting PARP for the treatment of cancer” (Eur J Med Chem, 2023):
Each block holds one compound with its values, some of them ahead of it. Activity calls are given as the source filed them. The rule behind the calls is not given here.

Assays:
NCM460 [1] = test: Antiproliferative activity against human NCM460 cells assessed as inhibition of cell viability incubated for 72 hrs by CCK8 assay; format: functional, cell-based; details: NCM460, 72 h
A549 [2] = test: Antiproliferative activity against human A549 cells assessed as inhibition of cell viability incubated for 72 hrs by CCK8 assay; format: functional, cell-based; details: A549, 72 h
MCF7 [3] = test: Antiproliferative activity against human MCF7 cells assessed as inhibition of cell viability incubated for 72 hrs by CCK8 assay; format: functional, cell-based; details: MCF7, 72 h
MV4-11 [4] = test: Antiproliferative activity against human MV4-11 cells assessed as inhibition of cell viability incubated for 72 hrs by CCK8 assay; format: functional, cell-based; details: MV4-11, 72 h
HCT-116 [5] = test: Antiproliferative activity against human HCT-116 cells assessed as inhibition of cell viability incubated for 72 hrs by CCK8 assay; format: functional, cell-based; details: HCT-116, 72 h
MV4-11 [6] = test: Antiproliferative activity against human MV4-11 cells assessed as inhibition of cell viability incubated for 72 hrs in presence of IDM by CCK8 assay; format: functional, cell-based; details: MV4-11, 72 h
HCT-116 [7] = test: Antitumor activity against human HCT-116 cells xenografted in BALB/c nude mouse assessed as tumor growth inhibition at 20 mg/kg, ip administered for 14 days relative to control; format: functional; details: time 14 day
HCT-116 [8] = test: Induction of DNA damage in human HCT-116 cells assessed as increase in gammaH2AX protein level at 1 uM incubated for 48 hrs in presence of IDM by Western blotting analysis; format: cell-based
[9] = target: T1, Poly [ADP-ribose] polymerase 1 (Homo sapiens, UniProt P09874); details: dose 10.0 nM, time 10.0 min
T1 sequence (P09874 whole entry): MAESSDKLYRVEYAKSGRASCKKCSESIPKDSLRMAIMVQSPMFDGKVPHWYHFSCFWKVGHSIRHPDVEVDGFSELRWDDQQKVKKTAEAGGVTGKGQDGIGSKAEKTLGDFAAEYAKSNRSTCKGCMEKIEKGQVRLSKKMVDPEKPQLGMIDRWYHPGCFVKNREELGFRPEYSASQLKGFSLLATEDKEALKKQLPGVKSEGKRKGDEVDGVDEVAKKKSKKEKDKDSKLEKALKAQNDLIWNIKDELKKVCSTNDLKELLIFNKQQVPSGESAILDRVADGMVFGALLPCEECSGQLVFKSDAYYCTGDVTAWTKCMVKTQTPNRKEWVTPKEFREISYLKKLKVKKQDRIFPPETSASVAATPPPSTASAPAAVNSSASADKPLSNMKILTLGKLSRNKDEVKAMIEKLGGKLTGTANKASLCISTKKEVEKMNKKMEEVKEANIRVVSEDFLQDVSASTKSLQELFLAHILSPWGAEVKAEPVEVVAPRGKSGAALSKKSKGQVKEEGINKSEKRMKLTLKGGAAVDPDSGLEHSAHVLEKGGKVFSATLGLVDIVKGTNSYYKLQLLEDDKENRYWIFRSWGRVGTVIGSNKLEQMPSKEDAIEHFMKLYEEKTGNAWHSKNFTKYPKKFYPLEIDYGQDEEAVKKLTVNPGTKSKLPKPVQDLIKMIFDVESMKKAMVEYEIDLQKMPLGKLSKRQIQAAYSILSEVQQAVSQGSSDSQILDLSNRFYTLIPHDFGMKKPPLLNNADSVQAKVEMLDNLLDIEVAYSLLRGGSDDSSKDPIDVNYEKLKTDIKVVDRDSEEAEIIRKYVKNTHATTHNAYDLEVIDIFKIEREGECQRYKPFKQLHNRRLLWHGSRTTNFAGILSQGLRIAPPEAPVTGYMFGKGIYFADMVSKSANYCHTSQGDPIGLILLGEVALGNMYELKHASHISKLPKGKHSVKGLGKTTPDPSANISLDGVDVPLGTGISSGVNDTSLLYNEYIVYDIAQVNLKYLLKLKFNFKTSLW

HCT-116 [10] = test: cells; details: Homo sapiens, HCT-116, 72 h
Description: Antiproliferative activity against human HCT-116 cells assessed as inhibition of cell viability incubated for 72 hrs in presence of IDM by CCK8 assay

MCF7 [11] = test: cells; details: Homo sapiens, MCF7, 72 h
Description: Antiproliferative activity against human MCF7 cells assessed as inhibition of cell viability incubated for 72 hrs in presence of IDM by CCK8 assay

A549 [12] = test: cells; details: Homo sapiens, A549, 72 h
Description: Antiproliferative activity against human A549 cells assessed as inhibition of cell viability incubated for 72 hrs in presence of IDM by CCK8 assay

NCM460 [13] = test: cells; details: Homo sapiens, NCM460, 72 h
Description: Antiproliferative activity against human NCM460 cells assessed as inhibition of cell viability incubated for 72 hrs in presence of IDM by CCK8 assay

HCT-116 [14] = test: Antiproliferative activity against human HCT-116 cells assessed as inhibition of cell viability incubated for 72 hrs in presence of olaparib by CCK8 assay; format: functional, cell-based; details: HCT-116, 72 h
MV4-11 [15] = test: Antiproliferative activity against human MV4-11 cells assessed as inhibition of cell viability incubated for 72 hrs in presence of olaparib by CCK8 assay; format: functional, cell-based; details: MV4-11, 72 h
MCF7 [16] = test: Antiproliferative activity against human MCF7 cells assessed as inhibition of cell viability incubated for 72 hrs in presence of olaparib by CCK8 assay; format: functional, cell-based; details: MCF7, 72 h
A549 [17] = test: Antiproliferative activity against human A549 cells assessed as inhibition of cell viability incubated for 72 hrs in presence of olaparib by CCK8 assay; format: functional, cell-based; details: A549, 72 h
NCM460 [18] = test: Antiproliferative activity against human NCM460 cells assessed as inhibition of cell viability incubated for 72 hrs in presence of olaparib by CCK8 assay; format: functional, cell-based; details: NCM460, 72 h
HCT-116 [19] = test: Antiproliferative activity against human HCT-116 cells assessed as inhibition of cell viability incubated for 72 hrs in presence of Niraparib by CCK8 assay; format: functional, cell-based; details: HCT-116, 72 h
MV4-11 [20] = test: Antiproliferative activity against human MV4-11 cells assessed as inhibition of cell viability incubated for 72 hrs in presence of Niraparib by CCK8 assay; format: functional, cell-based; details: MV4-11, 72 h
MCF7 [21] = test: Antiproliferative activity against human MCF7 cells assessed as inhibition of cell viability incubated for 72 hrs in presence of Niraparib by CCK8 assay; format: functional, cell-based; details: MCF7, 72 h
A549 [22] = test: Antiproliferative activity against human A549 cells assessed as inhibition of cell viability incubated for 72 hrs in presence of Niraparib by CCK8 assay; format: functional, cell-based; details: A549, 72 h
NCM460 [23] = test: Antiproliferative activity against human NCM460 cells assessed as inhibition of cell viability incubated for 72 hrs in presence of Niraparib by CCK8 assay; format: functional, cell-based; details: NCM460, 72 h
HCT-116 [24] = test: Antiproliferative activity against human HCT-116 cells assessed as combination index incubated for 72 hrs in presence of olaparib by CCK8 assay; format: functional
MV4-11 [25] = test: Antiproliferative activity against human MV4-11 cells assessed as combination index incubated for 72 hrs in presence of olaparib by CCK8 assay; format: functional
MCF7 [26] = test: Antiproliferative activity against human MCF7 cells assessed as combination index incubated for 72 hrs in presence of olaparib by CCK8 assay; format: functional
A549 [27] = test: Antiproliferative activity against human A549 cells assessed as combination index incubated for 72 hrs in presence of olaparib by CCK8 assay; format: functional
NCM460 [28] = test: Antiproliferative activity against human NCM460 cells assessed as combination index incubated for 72 hrs in presence of olaparib by CCK8 assay; format: functional
HCT-116 [29] = test: Antiproliferative activity against human HCT-116 cells assessed as combination index incubated for 72 hrs in presence of Niraparib by CCK8 assay; format: functional
MV4-11 [30] = test: Antiproliferative activity against human MV4-11 cells assessed as combination index incubated for 72 hrs in presence of Niraparib by CCK8 assay; format: functional
MCF7 [31] = test: Antiproliferative activity against human MCF7 cells assessed as combination index incubated for 72 hrs in presence of Niraparib by CCK8 assay; format: functional
A549 [32] = test: Antiproliferative activity against human A549 cells assessed as combination index incubated for 72 hrs in presence of Niraparib by CCK8 assay; format: functional
NCM460 [33] = test: Antiproliferative activity against human NCM460 cells assessed as combination index incubated for 72 hrs in presence of Niraparib by CCK8 assay; format: functional
HCT-116 [34] = test: Antitumor activity against human HCT-116 cells xenografted in BALB/c nude mouse assessed as tumor growth inhibition at 20 mg/kg, ip administered for 14 days in presence of Olaparib relative to control; format: functional; details: HCT-116, 336 h, time 14 day, read-out: TGI
HCT-116 [35] = test: Induction of DNA damage in human HCT-116 cells assessed as increase in gammaH2AX protein level at 1 uM incubated for 48 hrs in presence of Olaparib by Western blotting analysis; format: functional, cell-based
[36] = target: T1, Poly [ADP-ribose] polymerase 1; test: Inhibition of PARP1 (unknown origin) incubated for 10 mins by chemiluminescence assay

SMILES: O=C(c1cc(Cc2n[nH]c(=O)c3ccccc23)ccc1F)N1CCN(C(=O)C2CC2)CC1 [OLAPARIB]
- IC50 (NCM460 [1]): 67.2 µM
- IC50 (A549 [2]): 29.5 µM
- IC50 (MCF7 [3]): 93.9 µM
- IC50 (MV4-11 [4]): 13.4 µM
- IC50 (HCT-116 [5]): 11.1 µM
- IC50 (MV4-11 [6]): 2.36 µM
- TGI (HCT-116 [7]): 32.5%
- Activity (HCT-116 [8]): Active
- inhibition [9]: 50.6%
- IC50 (HCT-116 [10]): 1.37 µM
- IC50 (MCF7 [11]): 2.33 µM
- IC50 (A549 [12]): 6.06 µM
- IC50 (NCM460 [13]): 20.2 µM

SMILES: O=C1Nc2ccc(Br)cc2/C1=C1/Nc2ccc(Br)cc2/C1=N\OCCCC(=O)N1CCN(C(=O)c2cc(Cc3n[nH]c(=O)c4ccccc34)ccc2F)CC1
- IC50 (NCM460 [1]): > 60 µM
- IC50 (A549 [2]): 47.2 µM
- IC50 (MCF7 [3]): 48.7 µM
- IC50 (MV4-11 [4]): 48.4 µM
- IC50 (HCT-116 [5]): 8.21 µM
- inhibition [9]: 31.1%

SMILES: O=C1Nc2ccc(F)cc2/C1=C1/Nc2ccc(F)cc2/C1=N\OCCCC(=O)N1CCN(C(=O)c2cc(Cc3n[nH]c(=O)c4ccccc34)ccc2F)CC1
- IC50 (NCM460 [1]): > 60 µM
- IC50 (A549 [2]): 42.3 µM
- IC50 (MCF7 [3]): 45.3 µM
- IC50 (MV4-11 [4]): 44.4 µM
- IC50 (HCT-116 [5]): 0.75 µM
- inhibition [9]: 49.9%

SMILES: O=C1Nc2ccc(F)cc2/C1=C1/Nc2ccccc2/C1=N\OCCCC(=O)N1CCN(C(=O)c2cc(Cc3n[nH]c(=O)c4ccccc34)ccc2F)CC1
- IC50 (NCM460 [1]): > 60 µM
- IC50 (A549 [2]): 34.7 µM
- IC50 (MCF7 [3]): 38.7 µM
- IC50 (MV4-11 [4]): 23.8 µM
- IC50 (HCT-116 [5]): 19.3 µM
- IC50 [36]: 0.00225 µM
- inhibition [9]: 54.9%

SMILES: O=C1Nc2ccc(Br)cc2/C1=C1/Nc2ccccc2/C1=N\OCCCC(=O)N1CCN(C(=O)c2cc(Cc3n[nH]c(=O)c4ccccc34)ccc2F)CC1
- IC50 (NCM460 [1]): > 60 µM
- IC50 (A549 [2]): 27.6 µM
- IC50 (MCF7 [3]): 29.2 µM
- IC50 (MV4-11 [4]): 11.4 µM
- IC50 (HCT-116 [5]): 8.43 µM
- IC50 [36]: 0.00466 µM
- inhibition [9]: 53.8%

SMILES: O=C1Nc2ccccc2/C1=C1/Nc2ccccc2/C1=N\OCc1ccc(C(=O)N2CCN(C(=O)c3cc(Cc4n[nH]c(=O)c5ccccc45)ccc3F)CC2)cc1
- IC50 (NCM460 [1]): > 60 µM
- IC50 (A549 [2]): 42.7 µM
- IC50 (MCF7 [3]): 43.8 µM
- IC50 (MV4-11 [4]): 33.1 µM
- IC50 (HCT-116 [5]): 27.4 µM

SMILES: O=C1Nc2ccc(Cl)cc2/C1=C1/Nc2ccccc2/C1=N\OCCCC(=O)N1CCN(C(=O)c2cc(Cc3n[nH]c(=O)c4ccccc34)ccc2F)CC1
- IC50 (NCM460 [1]): > 60 µM
- IC50 (A549 [2]): > 50 µM
- IC50 (MCF7 [3]): > 50 µM
- IC50 (MV4-11 [4]): > 50 µM
- IC50 (HCT-116 [5]): 28.3 µM

These reach a lower IC50 (A549 [2]). Values come first.

- IC50 (A549 [2]): 12.6 µM
- IC50 (MCF7 [3]): 11.8 µM
- IC50 (MV4-11 [4]): 3.82 µM
- IC50 (HCT-116 [5]): 1.81 µM
- IC50 (MV4-11 [6]): 1.69 µM
- IC50 (HCT-116 [10]): 0.83 µM
- IC50 (MCF7 [11]): 1.41 µM
- IC50 (A549 [12]): 4.17 µM
- IC50 (NCM460 [13]): 21.1 µM
SMILES: NC(=O)c1cccc2cn(-c3ccc([C@@H]4CCCNC4)cc3)nc12 [NIRAPARIB]
- IC50 (NCM460 [1]): 53.7 µM

- IC50 (A549 [2]): 8.21 µM
- IC50 (MCF7 [3]): 4.1 µM
- IC50 (MV4-11 [4]): 6.01 µM
- IC50 (HCT-116 [5]): 3.88 µM
- IC50 (HCT-116 [14]): 1.37 µM
- IC50 (MV4-11 [15]): 2.36 µM
- IC50 (MCF7 [16]): 2.33 µM
- IC50 (A549 [17]): 6.06 µM
- IC50 (HCT-116 [19]): 0.83 µM
- IC50 (MV4-11 [20]): 1.69 µM
- IC50 (MCF7 [21]): 1.41 µM
- IC50 (A549 [22]): 4.17 µM
SMILES: O=C1Nc2ccccc2/C1=C1/Nc2ccccc2/C1=N\O
- IC50 (NCM460 [1]): 13.1 µM
- IC50 (NCM460 [18]): 20.2 µM
- IC50 (NCM460 [23]): 21.1 µM
- CI (HCT-116 [24]): 0.47
- CI (MV4-11 [25]): 0.57
- CI (MCF7 [26]): 0.59
- CI (A549 [27]): 0.94
- CI (NCM460 [28]): 0.92
- CI (HCT-116 [29]): 0.67
- CI (MV4-11 [30]): 0.72
- CI (MCF7 [31]): 0.47
- CI (A549 [32]): 0.84
- CI (NCM460 [33]): 1
- inhibition in vivo at 20 mg/kg (HCT-116 [7]; Mus musculus, HCT-116, 336 h, read-out: TGI): 47.4%
- inhibition in vivo at 20 mg/kg (HCT-116 [34]): 64.6%
- Activity (HCT-116 [35]): Active

- IC50 (A549 [2]): 25 µM
- IC50 (MCF7 [3]): 32.4 µM
- IC50 (MV4-11 [4]): 21.6 µM
- IC50 (HCT-116 [5]): 17.8 µM
- IC50 [36]: 0.00446 µM
- inhibition [9]: 55.8%
SMILES: O=C1Nc2ccccc2/C1=C1/Nc2ccc(F)cc2/C1=N\OCCCC(=O)N1CCN(C(=O)c2cc(Cc3n[nH]c(=O)c4ccccc34)ccc2F)CC1
- IC50 (NCM460 [1]): > 60 µM
